The source of these data is US7943296B2, “Methods of screening using a natriuretic peptide receptor” (Oregon Health & Science University, priority 2005, dated 2011).

Positions count from the first letter of the chain named.

The test system of assay [1] is α-SMA promoter. The assay can be described thus: TGF-β1-induced α-SMA-luciferase reporter in CFs transfected with pcDNA3-sNRF or control vector. It counts as cell-based. To be noted: for inhibitory effect on sNRF action (loss of NP inhibition of α-SMA-luciferase): sNRF-transfected CFs, TGF-β1 + ANP, 24 hours. The procedure:
TGF-β1 signaling is required for angiotensin effects in the heart, and NPs oppose TGF-β1 effects in CFs. […] CFs were transiently transfected with the α-SMA-luciferase vector and pcDNA3 control vector or pcDNA3-sNRF, then treated for 24 hours with TGF-β1, ANP, and the angiotensin-converting enzyme inhibitor captopril (CAP) or the angiotensin receptor-1 blocker losartan (LOS).
For orientation: A reporter such as luciferase makes a cellular process visible.

Assay [2] has as its system α-SMA promoter. The assay can be described thus: α-SMA-luciferase reporter in neonatal rat CFs with daily TGF-β1, model of NP resistance. It counts as cell-based. The protocol: Neonatal rat CFs were transfected with an α-SMA-luciferase reporter construct driven by TGF-β1 induction of the α-SMA promoter. After 24 hours, cells were treated daily with […] TGF-β1 for up to 4 days. On each successive day, some of the cells were treated with NP (ANP, 100 nM), and luciferase activity measured.

The subject of assay [3] is cardiac fibroblasts (CFs). The assay can be described thus: bFGF-induced α-SMA protein expression in CFs (Western blot). Format: cell-based, rat. As to conditions: cells with insertless vector; 10 ng/ml FGF 48 hours; 100 nM ANP. The protocol:
(§1) NP's ability to inhibit growth factor-induced CF differentiation into myofibroblasts was determined as follows. CFs were transiently transfected with insertless pcDNA3 vector or pcDNA3 encoding sNRF^(806-900) (see Example 7). The transfected CFs were then treated for 48 hours with 10 ng/ml basic fibroblast growth factor (FGF; Sigma-Aldrich #F0291) in the presence or absence of 100 nM ANP. Alpha-smooth muscle actin (α-SMA) protein expression, the principal marker of CF differentiation, was assessed by Western blotting and immunofluorescence microscopy. Vimentin staining was used as a loading control because it is expressed equally in fibroblasts and transdifferentiated myofibroblasts.
On the technique in general: In western blotting, separated proteins are transferred to a membrane and probed.

Assay [4] concerns cardiac fibroblasts (CFs). The assay can be described thus: Vimentin localisation in CFs by immunofluorescence microscopy. It counts as cell-based, rat. As to conditions: in the presence of ANP. The procedure: as §1
For the immunofluorescence microscopy, slide wells were treated as described in Example 7 and incubated with anti-α-SMA and anti-vimentin antibody as well as phalloidin to stain for actin. Briefly, cells were rinsed twice with phosphate-buffered saline (PBS) and fixed with 3.7% formaldehyde in PBS for 10 minutes. After fixation, cells were rinsed with PBS and permeabilized with 0.3% Triton X-100 in PBS for 10 minutes and blocked for 1 hour in 1% horse serum, 0.2% bovine serum albumin in PBS. Cells were then incubated with primary α-SMA antibody (ABCAM ab7817) and primary vimentin antibody (ABCAM ab7783) diluted in blocking solution for 1 hour and washed three times with blocking solution for 5 minutes. […]

Assay [5] concerns the target T1, PKG (Homo sapiens, UniProt Q13976).
T1 construct: endogenous in cells; host or cells: HEK293 stably over-expressing FLAG-NPRA (HEK-NPRA)
T1 sequence (Q13976 1-671): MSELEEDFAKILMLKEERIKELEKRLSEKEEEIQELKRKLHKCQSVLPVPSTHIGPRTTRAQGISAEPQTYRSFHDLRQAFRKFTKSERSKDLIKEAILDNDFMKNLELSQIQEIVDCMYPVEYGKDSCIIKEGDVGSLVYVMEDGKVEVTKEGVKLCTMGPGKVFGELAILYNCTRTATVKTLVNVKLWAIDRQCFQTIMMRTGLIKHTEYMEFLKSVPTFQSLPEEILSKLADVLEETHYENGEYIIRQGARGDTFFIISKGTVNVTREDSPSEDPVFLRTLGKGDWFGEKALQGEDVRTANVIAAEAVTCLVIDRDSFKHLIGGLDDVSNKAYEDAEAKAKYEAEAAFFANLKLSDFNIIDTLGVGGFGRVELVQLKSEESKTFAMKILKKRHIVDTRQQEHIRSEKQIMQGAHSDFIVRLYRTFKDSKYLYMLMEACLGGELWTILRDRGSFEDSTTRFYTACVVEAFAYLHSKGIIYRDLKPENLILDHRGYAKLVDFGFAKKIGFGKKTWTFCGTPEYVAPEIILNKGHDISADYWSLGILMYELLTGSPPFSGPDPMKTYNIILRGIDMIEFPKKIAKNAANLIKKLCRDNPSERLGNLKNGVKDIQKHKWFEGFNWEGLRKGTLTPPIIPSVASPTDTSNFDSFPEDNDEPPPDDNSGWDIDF
The assay can be described thus: Immunofluorescence of NP-induced PKG membrane translocation in HEK-NPRA cells. It counts as cell-based. As to conditions: fragment expressed in HEK-NPRA cells; ANP 100 nM 15 minutes. The procedure: HEK-NPRA cells were transiently transfected with insertless pcDNA3 plasmid vector or pcDNA3-sNRF^(806-1061). All slide wells were treated with atrial natriuretic peptide (ANP) (100 nM; Sigma-Aldrich #A1663) for 15 minutes. Cells were decorated with monoclonal flag antibody specific for FLAG-NPRA (red) and polyclonal PKG antibody (green). Overlapping regions of PKG and NPRA appeared yellow-orange. PKG staining was absent when anti-PKG antibody was pre-adsorbed with recombinant PKG protein (Calbiochem).

In assay [6] the target is T2, PKG (Rattus norvegicus, UniProt A9LNM8).
T2 construct: endogenous in cells; host or cells: primary neonatal rat cardiac fibroblasts transfected with 5'-FLAG sNRF fragments
T2 sequence (A9LNM8 1-671): T1 sequence (Q13976 1-671) with E227D, T265K, N267S, G291E, K499E, N586S, N656S
The assay can be described thus: Co-immunoprecipitation of PKG with FLAG-tagged NPRA fragments in primary CFs. As to conditions: 5'-FLAG-tagged fragment in transfected CFs, anti-FLAG M2 affinity gel. Format: binding. The protocol:
Neonatal rat ventricular fibroblasts (CFs) were cultured from 1 to 2-day-old Harlan Sprague-Dawley rats as described previously (Simpson, Circulation Res. 56:884-94, 1985). Briefly, ventricles were dissected free from atria and quartered. Following dissociation in ADS buffer containing 1.5 mg/ml trypsin (Gibco #27250-018) and 1% DNase solution (2 mg/ml DNase type II, 150 mM NaCl) with serum neutralization the collected cells were pre-incubated in media at 37° C. for 90 minutes to allow CF attachment to the bottom of culture dishes. CFs were incubated in plating media for 48 hours, divided into 6-well culture plates or dual-well chamberslides, and grown to 50% confluency in DMEM with 10% FBS prior to use.
CFs were transiently transfected with nucleic acid molecules encoding sNRF^(806-1061), sNRF^(806-900), or sNRF^(806-860) using routine methods. Briefly, PCR-generated, 5′-FLAG epitope-tagged sNRFs were subcloned into the BamHI and EcoRI sites of pCDNA3 (Invitrogen) and sequenced to verify construction accuracy. […]
The ability of the NPRA fragments to immunoprecipitate PKG was determined in the primary CF cells transfected with the 5′-FLAG epitope-tagged NPRA fragments as follows. […] Bound antibody was detected with chemiluminescent substrate (Western Lightning ECL, PerkinElmer Life Sciences).

With `C[C@H](CS)C(=O)N1CCC[C@H]1C(=O)O` [captopril], in the assay with α-SMA promoter [1], the “inhibitory effect on sNRF action (loss of NP inhibition of α-SMA-luciferase)” value is “no significant inhibitory effect”.

For the compound `CC[C@H](C)[C@@H]1NC(=O)[C@H](CCCNC(=N)N)NC(=O)[C@H](CC(=O)O)NC(=O)[C@H](CCSC)NC(=O)[C@H](CCCNC(=N)N)NC(=O)CNC(=O)CNC(=O)[C@H](Cc2ccccc2)NC(=O)[C@@H](NC(=O)[C@H](CO)NC(=O)[C@H](CO)NC(=O)[C@H](CCCNC(=N)N)NC(=O)[C@H](CCCNC(=N)N)NC(=O)[C@H](CC(C)C)NC(=O)[C@@H](N)CO)CSSC[C@@H](C(=O)N[C@@H](CC(N)=O)C(=O)N[C@@H](CO)C(=O)N[C@@H](Cc2ccccc2)C(=O)N[C@@H](CCCNC(=N)N)C(=O)N[C@@H](Cc2ccc(O)cc2)C(=O)O)NC(=O)CNC(=O)[C@H](CC(C)C)NC(=O)CNC(=O)[C@H](CO)NC(=O)[C@H](CCC(N)=O)NC(=O)[C@H](C)NC(=O)CNC1=O` [ANP, atrial natriuretic peptide], the “expression of the luciferase reporter construct driven by TGF-β1 induction of the α-SMA promoter” value with α-SMA promoter [2] (NP (ANP, 100 nM) 24 hours, 100 nM TGF-β1) was “almost completely inhibited”. In addition, the “NP's inhibitory effect on TGF-β1-induced α-SMA-luciferase” value in the assay on α-SMA promoter [2] (progressively longer periods of NP treatment, up to 4 days) is “steady decline in NP's inhibitory effects”. Also, in assay [3], the “bFGF-induced α-SMA protein expression” value was “inhibited bFGF-induced α-SMA protein expression”. For the same compound, the “nuclear to cytosolic translocation of vimentin” value in assay [4] is “nuclear to cytosolic translocation of vimentin was observed”. In addition, in the assay on α-SMA promoter [1] (cells that do not over-express sNRF), the “TGF-β1-induced α-SMA-luciferase expression” value was “inhibits TGF-β1-induced α-SMA-luciferase expression”.

As to `CCCCc1nc(Cl)c(CO)n1Cc1ccc(-c2ccccc2-c2nn[nH]n2)cc1` [losartan], the “NP-inhibition of TGF-β1 induction of α-SMA-luciferase” value in the assay on α-SMA promoter [1] (non-sNRF transfected cells) is recorded as “blocks NP-inhibition of TGF-β1 induction of α-SMA-luciferase”. In addition, the “inhibitory effect on sNRF action (loss of NP inhibition of α-SMA-luciferase)” value in the assay on α-SMA promoter [1] is “no significant inhibitory effect”.

For “sNRF^(806-1061): intracellular NPRA fragment, residues 806-1061, with hinge domain and C-terminal guanylyl cyclase domain; expressed FLAG-tagged”, the “translocation of cytosolic PKG to the plasma membrane” value in the assay with PKG [5] is listed as “inhibited translocation of cytosolic PKG to the plasma membrane”. Moreover, the “co-immunoprecipitation of PKG” value with PKG [6] was “co-immunoprecipitated PKG”.
